The test can be described thus: clearance of hydroxyl free radicals, orthophenanthroline Fe2+ oxidation method. It is filed as biochemical. Also noted: Clearance rate of •OH (d): unit not given here. The conditions noted are these: for Clearance rate of •OH (d): n = 5. The text has this: Materials and methods-test drug and reagent: Extract of black soybean hull A (containing cyanidin 12.52%, catechin 13.50%, and OPC 54.01%). Orthophenanthroline, hydrogen peroxide, ascorbic acid (VC), and FeSO4.7H2O were all analytical pure reagents made in China. Materials and Methods-instruments: An LSY constant temperature water bath was obtained from a Beijing medical instrument manufacturer, and a UV-2000 spectrophotometer was from […], Shanghai Instrument Co., Ltd.). Test method-reagent preparation: Reagents included 0.1% H2O[…]), a 5 mmol/L anhydrous ethanol solution of orthophenanthroline, 0.75 mmol/L FeSO4, a 0.2 mmol/L phosphoric acid buffer solution (PBS; pH=7.4), BSHE A, prepared with double distilled water and diluted to concentrations of 0.5, 0.25, 0.125, and 0.0625 mg/ml, and ascorbic acid, prepared at concentrations of 4, 2, 1, and 0.5 mg/ml with double distilled water. Test method-measuring hydroxyl free radicals: The clearing of hydroxyl free radicals was tested using an orthophenanthrolin Fe^2+ oxidation method to further evaluate the anti-oxidation capacity of BSHE A. (1) 2 ml PBS, the test drug at the concentrations listed above, and 1 ml ascorbic acid were sequentially added to a disposable 10 ml polyethylene test tube and shaken. 0.35 ml of 5 mmol/L orthophenanthroline solution and 1 ml 0.75 mmol/L FeSO4 were added and mixed fully. 1 ml of 0.1% H2O2 was added, and the tube was vibrated for 1 minute. […] (2) The 1 ml of test drug in (1) was replaced with 1 ml deionized water, while the other conditions were the same as in (1). The absorbency value Ab was measured. (3) The 1 ml H2O2 in (2) was replaced with 1 ml deionized water, while the other conditions were the same as in (2). The absorbency value Ac was measured. (4) The clearance rate (d) of .OH by the test drug and the positive comparison was calculated according to the following equation: [formula] The total volume of reaction was 5.35 ml. The final concentrations of ascorbic acid thus were 0.748 mg/ml, 0.374 mg/ml, 0.187 mg/ml, and 0.093 mg/ml, while the final concentrations of BSHE A were 0.093 mg/ml, 0.047 mg/ml, 0.023 mg/ml, and 0.012 mg/ml. Five samples were tested in each group. The clearance rate of .OH was calculated individually and then average values were calculated.

Molecules are shown by their SMILES.

Consider `O=C1O[C@H]([C@@H](O)CO)C(O)=C1O` [ascorbic acid], for which the “Clearance rate of •OH (d)” value (final concentration 0.093 mg/ml) amounted to 0.212 ± 2.47, the “Clearance rate of •OH (d)” value (final concentration 0.187 mg/ml) stood at 4.21 ± 1.32, the “Clearance rate of •OH (d)” value (final concentration 0.374 mg/ml) stood at 50.32 ± 4.29 and the “Clearance rate of •OH (d)” value (final concentration 0.748 mg/ml) is given as 91.29 ± 3.26. In addition, the “IC50 of hydroxyl free radical clearance” value (from fitted line) is 401.4 µg/mL.

The record behind these values is patent US8206764B2, “Black soybean hull extract, method for obtaining, and use thereof” (Beijing Gingko-Group Biological Technology Co., Ltd., priority 2006, dated 2012).
